Where two headings read alike, the source gives them in different places.
Legend:
[1] = system: A2780 ovarian cancer cells; assay: Cellular proliferation, Cell Titer Glo (Biological Method 4); format: cell-based; settings: Homo sapiens, ovarian cancer cell line A2780
Procedure: In addition, many of the compounds of Table 1 were tested to determine their inhibitory activity in a cellular proliferation assay according to Biological Method 4.
The ability of the compounds of the invention to inhibit cellular proliferation were determined by using Cell Titer Glo, a commercially available assay from Promega Corporation. A2780 ovarian cancer cells were seeded in TC treated 96-well plates at a density of 1,000 per well in DMEM, 10% FBS, 1% Sodium Pyruvate, and 1% Penicillin Streptomycin for a minimum of 2 hrs prior to addition of compound. For each concentration of test compound, 2 μl (500×) aliquots of compound or 100% DMSO diluted in 500 μl of culture medium for 2× concentration then diluted 1× on the Cells. Cells were incubated for 72 hrs at 37° C., 5% CO2. After the 72 hour incubation, Cell Titer Glo reagent is added to determine number of viable cells remaining after exposure to the compound, and the EC50 value was calculated. The assay was performed according to the manufacturer's instruction (Promega Corporation, Madison, Wis. USA). Each experimental condition was performed in duplicate.

PI3 kinase alpha = PI3 kinase alpha (Homo sapiens, UniProt P42336); assay: PI3K ATP depletion assay (Biological Method 1, Assay 3); format: biochemical
Procedure: Assay 3: ATP Depletion Assay
Compounds to be tested are dissolved in DMSO and directly distributed into a black 384-well plate at 1.25 μL per well. To start the reaction, 25 μL of 10 nM PI3 kinase and 5 μg/mL 1-alpha-phosphatidylinositol (PI) are added into each well followed by 25 μL of 2 μM ATP. The reaction is performed until approx 50% of the ATP is depleted, and then stopped by the addition of 25 μL of KinaseGlo solution purchased from Promega. The stopped reaction is incubated for 5 minutes and the remaining ATP is then detected via luminescence.

pSer473 Akt = pSer473 Akt assay to monitor PI3K pathway in A2780 cells (Biological Method 2); format: cell-based; settings: Homo sapiens, inhibition of Akt phosphorylation
Procedure: In this method, an assay for measuring the PI3K-mediated pSer473-Akt status after treatment with representative inhibitor compounds of the invention is described.
A2780 cells were cultured in DMEM supplemented with 10% FBS. L-glutamine, sodium pyruvate, and antibiotics. Cells were plated in the same medium at a density of 15,000 cells per well into 96 well tissue culture plates, with outside wells vacant, and allowed to adhere overnight.
Test compounds supplied in DMSO were diluted further into DMSO at 500 times the desired final concentrations before dilution into culture media to 2 times the final concentrations. Equal volumes of 2× compounds were added to the cells in 96 well plates and incubated at 37° C. for one hour. The media and compounds were then removed, the plates chilled and cells lysed in a lysis buffer (150 mM NaCl, 20 mM Tris pH 7.5, 1 mM EDTA, 1 mM EGTA, 1% Triton X-100) supplemented with phosphatase and protease inhibitors. After thorough mixing, lysates were transferred to both pSer473Akt and total Akt assay plates from Meso Scale Discovery (MSD), and incubated overnight with shaking at 4° C.
The assays were read on a SECTOR Imager 6000 instrument (Meso Scale Discovery). Ratios of the signal from pSer473Akt and total Akt assays were used to correct for any variability and the percent inhibition of pSer473Akt from the total signal seen in cells treated with compound versus DMSO alone was calculated and used to determine EC50 values for each compound.

Chain of PI3 kinase alpha (P42336 whole entry): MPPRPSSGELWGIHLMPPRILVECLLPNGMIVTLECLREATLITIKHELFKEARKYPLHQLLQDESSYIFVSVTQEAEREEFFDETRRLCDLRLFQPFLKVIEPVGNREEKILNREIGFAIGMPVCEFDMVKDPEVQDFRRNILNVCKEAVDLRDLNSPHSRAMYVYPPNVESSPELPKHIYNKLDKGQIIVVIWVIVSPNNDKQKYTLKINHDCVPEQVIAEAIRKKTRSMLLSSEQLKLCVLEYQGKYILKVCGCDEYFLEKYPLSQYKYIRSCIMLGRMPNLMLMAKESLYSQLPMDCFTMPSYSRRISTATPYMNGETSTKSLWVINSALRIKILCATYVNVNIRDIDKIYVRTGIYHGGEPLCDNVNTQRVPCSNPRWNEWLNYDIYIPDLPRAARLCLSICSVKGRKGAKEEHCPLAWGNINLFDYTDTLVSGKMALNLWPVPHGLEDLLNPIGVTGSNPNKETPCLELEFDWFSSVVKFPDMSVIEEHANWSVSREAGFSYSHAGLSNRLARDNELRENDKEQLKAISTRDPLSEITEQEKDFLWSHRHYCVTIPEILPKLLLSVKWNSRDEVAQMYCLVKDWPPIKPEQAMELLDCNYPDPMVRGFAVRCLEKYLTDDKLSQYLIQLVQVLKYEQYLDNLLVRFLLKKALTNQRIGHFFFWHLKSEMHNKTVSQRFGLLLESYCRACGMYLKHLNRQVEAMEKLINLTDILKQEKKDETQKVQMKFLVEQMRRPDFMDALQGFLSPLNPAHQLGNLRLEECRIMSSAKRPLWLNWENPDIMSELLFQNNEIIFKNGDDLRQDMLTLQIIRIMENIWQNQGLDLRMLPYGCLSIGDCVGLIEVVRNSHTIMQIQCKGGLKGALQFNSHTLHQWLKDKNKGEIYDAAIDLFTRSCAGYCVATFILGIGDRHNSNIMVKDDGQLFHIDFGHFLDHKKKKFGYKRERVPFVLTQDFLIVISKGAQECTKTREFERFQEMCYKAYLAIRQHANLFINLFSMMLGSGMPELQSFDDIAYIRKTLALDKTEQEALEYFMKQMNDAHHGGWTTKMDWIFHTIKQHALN
Chain of PI3 kinase alpha (P27986 whole entry partner): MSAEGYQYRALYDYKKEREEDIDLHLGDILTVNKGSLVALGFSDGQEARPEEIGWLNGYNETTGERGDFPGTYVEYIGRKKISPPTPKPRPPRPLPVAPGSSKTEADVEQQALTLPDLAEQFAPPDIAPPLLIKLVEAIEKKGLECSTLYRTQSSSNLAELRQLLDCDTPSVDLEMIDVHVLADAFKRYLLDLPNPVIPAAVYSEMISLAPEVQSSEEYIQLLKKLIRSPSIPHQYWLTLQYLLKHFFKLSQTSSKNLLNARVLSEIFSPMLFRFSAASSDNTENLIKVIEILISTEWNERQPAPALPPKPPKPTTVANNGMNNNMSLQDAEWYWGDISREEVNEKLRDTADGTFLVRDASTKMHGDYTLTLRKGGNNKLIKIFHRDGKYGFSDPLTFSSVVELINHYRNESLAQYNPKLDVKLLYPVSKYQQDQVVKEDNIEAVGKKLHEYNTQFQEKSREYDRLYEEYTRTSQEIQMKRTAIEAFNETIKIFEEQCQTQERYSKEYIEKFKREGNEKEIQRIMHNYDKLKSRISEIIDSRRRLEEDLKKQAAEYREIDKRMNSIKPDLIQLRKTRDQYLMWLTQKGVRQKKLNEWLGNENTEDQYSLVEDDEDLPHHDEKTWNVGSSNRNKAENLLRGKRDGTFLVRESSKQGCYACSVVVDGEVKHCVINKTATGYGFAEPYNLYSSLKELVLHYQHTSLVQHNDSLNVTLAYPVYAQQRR

SMILES	EC50 [1]	IC50 (PI3 kinase alpha)	other results
Nc1cc(C(F)(F)F)c(-c2cc(N3CCCCC3=O)nc(N3CCOCC3)n2)cn1 [Compound 17]	< 10 µM	–	–
Nc1cc(C(F)(F)F)c(-c2cc(N3CCN(c4ccccc4)C3=O)nc(N3CCOCC3)n2)cn1 [Compound 18]	< 10 µM	–	–
CC(=O)N1CCC(Oc2cc(-c3cnc(N)cc3C(F)(F)F)nc(N3CCOCC3)n2)CC1 [Compound 19]	< 10 µM	–	–
CC(=O)N1CCC[C@@H](Oc2cc(-c3cnc(N)nc3N)nc(N3CCOCC3)n2)C1 [Compound 29]	< 10 µM	–	–
CCN(CC)CCc1csc(Nc2cc(-c3cnc(N)nc3C(F)(F)F)nc(N3CCOCC3)n2)n1 [Compound 55]	< 1 µM	< 1 µM	EC50 (pSer473 Akt): < 1 µM
Cc1c(Nc2ncc(-c3ccccc3)s2)nc(N2CCOCC2)nc1-c1cnc(N)nc1 [Compound 61]	< 1 µM	< 1 µM	EC50 (pSer473 Akt): < 1 µM
CS(=O)(=O)N1CCC[C@H](Oc2cc(-c3cnc(N)nc3N)nc(N3CCOCC3)n2)C1 [Compound 89]	< 1 µM	< 1 µM	EC50 (pSer473 Akt): < 1 µM
CS(=O)(=O)c1cccc(-c2cc(-c3cnc(N)cc3C#N)nc(N3CCOCC3)n2)c1 [Compound 92]	< 10 µM	–	–
CC(C)N1CCC(Oc2ccc(Nc3cc(-c4cnc(N)cc4C(F)(F)F)nc(N4CCOCC4)n3)cn2)C1 (centres unmarked) [Compound 93]	< 10 µM	–	–
CS(=O)(=O)c1cccc(-c2cc(-c3cnc(N)cc3C(F)(F)F)nc(N3CCOCC3)n2)c1 [Compound 95]	< 10 µM	–	–
Nc1ncc(-c2cc(OC3CCN(C(=O)OC4CCCC4)CC3)nc(N3CCOCC3)n2)c(N)n1 [Compound 97]	< 10 µM	–	–
CC(=O)N1CCC(Oc2cc(-c3cnc(N)nc3N)nc(N3CCOCC3)n2)CC1 [Compound 99]	< 10 µM	–	–
Nc1ncc(-c2cc(OC3CCN(C(=O)OCc4ccccc4)CC3)nc(N3CCOCC3)n2)c(N)n1 [Compound 146]	< 1 µM	< 1 µM	EC50 (pSer473 Akt): < 1 µM
COc1ccc(Nc2cc(-c3cnc(N)nc3C(F)(F)F)nc(N3CCOCC3)n2)cn1 [Compound 151]	< 10 µM	< 1 µM	EC50 (pSer473 Akt): < 1 µM
Nc1ncc(-c2cc(-c3cncc(O)c3)nc(N3CCOCC3)n2)cn1 [Compound 274]	< 10 µM	–	–
Nc1ncc(-c2cc(-c3ccc(F)nc3)nc(N3CCOCC3)n2)cn1 [Compound 278]	< 1 µM	–	–
N#Cc1cccnc1Nc1cc(-c2ccc(N)nc2)nc(N2CCOCC2)n1 [Compound 364]	< 25 µM	< 10 µM	–
Nc1ncc(-c2cc(N[C@H]3CCC[C@@H]3OCc3ccccc3)nc(N3CCOCC3)n2)cn1 [Compound 396]	< 10 µM	< 1 µM	–
Nc1ncc(-c2cc(Nc3ccnc4c(C(F)(F)F)cccc34)nc(N3CCOCC3)n2)cn1 [Compound 408]	–	–	IC50 (PI3 kinase alpha; Table 1, Biological Method 1): < 1 µM; EC50 ([1]; Biological Method 4): < 10 µM
CN(C)C(=O)c1cnc(N2CCOCC2)nc1-c1cnc(N)nc1 [Compound 422]	–	–	IC50 (PI3 kinase alpha; Table 1, Biological Method 1): < 10 µM
Nc1ccc(-c2cc(NCc3ccncc3)nc(N3CCOCC3)n2)cn1 [Compound 443]	–	–	IC50 (PI3 kinase alpha; Table 1, Biological Method 1): < 10 µM
Nc1ccc(-c2cc(NCc3ccccn3)nc(N3CCOCC3)n2)cn1 [Compound 444]	–	–	IC50 (PI3 kinase alpha; Table 1, Biological Method 1): < 10 µM
Nc1ccc(-c2cc(NCc3cccnc3)nc(N3CCOCC3)n2)cn1 [Compound 445]	–	–	IC50 (PI3 kinase alpha; Table 1, Biological Method 1): < 10 µM
CS(=O)(=O)Nc1cc(N)ncc1-c1cc(Nc2cnc3ccccc3c2)nc(N2CCOCC2)n1 [Compound 492]	–	–	IC50 (PI3 kinase alpha; Table 1, Biological Method 1): < 10 µM
COc1ccc2cc(Nc3cc(-c4ccc(N)nc4)nc(N4CCOCC4)n3)cnc2c1 [Compound 494]	–	–	EC50 ([1]; Biological Method 4): < 10 µM
Nc1ccc(-c2cc(Nc3cnc4ccc(OC(F)(F)F)cc4c3)nc(N3CCOCC3)n2)cn1 [Compound 496]	–	–	IC50 (PI3 kinase alpha; Table 1, Biological Method 1): < 10 µM
Nc1ccc(-c2cc(-c3ccc(N4CCN(CCO)CC4)nc3)nc(N3CCOCC3)n2)cn1 [Compound 499]	–	–	IC50 (PI3 kinase alpha; Table 1, Biological Method 1): < 1 µM; EC50 ([1]; Biological Method 4): < 10 µM
CS(=O)(=O)Nc1ccc(-c2cc(-c3ccc(N)nc3)nc(N3CCOCC3)n2)cn1 [Compound 503]	–	–	IC50 (PI3 kinase alpha; Table 1, Biological Method 1): < 1 µM; EC50 ([1]; Biological Method 4): < 10 µM
N#Cc1cnc(Nc2cc(-c3cnc(N)nc3C(F)(F)F)nc(N3CCOCC3)n2)s1 [Compound 545]	–	–	IC50 (PI3 kinase alpha; Table 1, Biological Method 1): < 1 µM
Cc1c(Nc2nc(-c3ccccc3)cs2)nc(N2CCOCC2)nc1-c1cnc(N)cc1C(F)(F)F [Compound 555]	–	–	IC50 (PI3 kinase alpha; Table 1, Biological Method 1): < 10 µM

Further lines, with some results ahead:

EC50 [1]	IC50 (PI3 kinase alpha)	SMILES	other results
< 10 µM	–	CCN(CC)CCc1csc(Nc2cc(-c3cnc(N)cc3C(F)(F)F)nc(N3CCOCC3)n2)n1 [Compound 13]	–
< 10 µM	–	COCCNc1cc(-c2cnc(N)nc2)nc(N2CCOCC2)n1 [Compound 14]	–
< 10 µM	–	CC(C)(C)Nc1cc(-c2cnc(N)nc2)nc(N2CCOCC2)n1 [Compound 16]	–
< 10 µM	–	CC(C)(C)OC(=O)N1CCC[C@H](Oc2cc(-c3cnc(N)cc3C(F)(F)F)nc(N3CCOCC3)n2)C1 [Compound 20]	–
< 10 µM	< 1 µM	CC(=O)Nc1ncc(-c2cc(-c3cnc(N)cc3C(F)(F)F)nc(N3CCOCC3)n2)s1 [Compound 126]	EC50 (pSer473 Akt): < 1 µM
< 1 µM	< 1 µM	CCN(CC)CCc1csc(Nc2cc(-c3cnc(N)nc3N)nc(N3CCOCC3)n2)n1 [Compound 133]	EC50 (pSer473 Akt): < 1 µM
< 1 µM	< 1 µM	Nc1ccc(-c2cc(-c3cc4ccccc4nc3NCCN3CCCC3)nc(N3CCOCC3)n2)cn1 [Compound 182]	EC50 (pSer473 Akt): < 1 µM
< 10 µM	< 1 µM	CN(C)CCOc1cncc(-c2cc(-c3cnc(N)cc3C(F)(F)F)nc(N3CCOCC3)n2)c1 [Compound 203]	EC50 (pSer473 Akt): < 1 µM
< 10 µM	–	COc1cncc(-c2cc(-c3ccc(N)nc3)nc(N3CCOCC3)n2)c1 [Compound 275]	–
< 1 µM	–	Nc1ncc(-c2cc(-c3cnc(N)nc3)nc(N3CCOCC3)n2)cn1 [Compound 279]	–
< 10 µM	< 1 µM	Nc1cc(C(F)(F)F)c(-c2cc(-c3cccnc3NCCO)nc(N3CCOCC3)n2)cn1 [Compound 285]	–
< 10 µM	–	Nc1cc(Cl)c(-c2cc(OC3CCOCC3)nc(N3CCOCC3)n2)cn1 [Compound 328]	–
< 10 µM	< 1 µM	Cn1c(Nc2cc(-c3cnc(N)nc3)nc(N3CCOCC3)n2)nc2ccccc21 [Compound 394]	–

Reference: patent US8563549B2, “Pyrimidine derivatives used as PI-3 kinase inhibitors” (Novartis AG, priority 2006, dated 2013)
